One test deals with human LRRK2 kinase (Homo sapiens, UniProt Q5S007). The settings on record: LRRK2, ADP-Glo, ATP 10 μM, 60 minutes at 25° C.
Test [1] addresses T1, panel of 468 kinases (Homo sapiens, UniProt Q86UX6).
T1 construct: purchased KINOMEscan (ScanMAX) service
The experiment in a line: KINOMEscan (ScanMAX) kinase profiling. It is filed as binding. To be noted: YANK3; 1 μM; read-out: % control.

Test [2] concerns the target T2, panel of 468 kinases (Homo sapiens, UniProt P51451).
T2 construct: purchased KINOMEscan (ScanMAX) service
The experiment in a line: KINOMEscan (ScanMAX) kinase profiling. It is filed as binding. To be noted: BLK; 1 μM; read-out: % control.

The target in a further test is T3, wild-type LRKK2 (Mus musculus, UniProt Q5S006).
T3 construct: endogenous in cells; host or cells: NIH-3T3
The test is described as follows: LRRK2 immunoblot, phosphorylation of Ser935, NIH-3T3 cell lysates. The settings on record: FIG. 1. The class given is cell-based. As for the experimental part:
Cell lysates were extracted from the NIH-3T3 cell pellet using lysis buffer (40 mM Tris-HCl pH 8.0, 120 mM NaCl, 0.10% Nonidet™-P40) supplemented with protease inhibitors. Proteins in whole-cell lysates were separated by SDS-PAGE and transferred to an Amersham™ nitrocellulose membrane (Amersham, UK). Nitrocellulose membranes were blocked with 5% skim milk in phosphate-buffered saline containing Tween 20 and incubated with primary antibodies overnight at 4° C. The blots were then incubated with the appropriate horseradish peroxidase (HRP)-conjugated secondary antibodies and proteins were visualized by enhanced chemiluminescence, according to the manufacturer's protocol (Amersham™ Western blotting). Secondary antibodies, anti-rabbit IgG-HRP were purchased from Cell Signaling technology. Immunoblot film were scanned on a LAS500 scanner, and images were managed with Adobe Photoshop

pIC50: −log10 of the molar value. Some results are limits rather than exact numbers.

T2 sequence (P51451 whole entry): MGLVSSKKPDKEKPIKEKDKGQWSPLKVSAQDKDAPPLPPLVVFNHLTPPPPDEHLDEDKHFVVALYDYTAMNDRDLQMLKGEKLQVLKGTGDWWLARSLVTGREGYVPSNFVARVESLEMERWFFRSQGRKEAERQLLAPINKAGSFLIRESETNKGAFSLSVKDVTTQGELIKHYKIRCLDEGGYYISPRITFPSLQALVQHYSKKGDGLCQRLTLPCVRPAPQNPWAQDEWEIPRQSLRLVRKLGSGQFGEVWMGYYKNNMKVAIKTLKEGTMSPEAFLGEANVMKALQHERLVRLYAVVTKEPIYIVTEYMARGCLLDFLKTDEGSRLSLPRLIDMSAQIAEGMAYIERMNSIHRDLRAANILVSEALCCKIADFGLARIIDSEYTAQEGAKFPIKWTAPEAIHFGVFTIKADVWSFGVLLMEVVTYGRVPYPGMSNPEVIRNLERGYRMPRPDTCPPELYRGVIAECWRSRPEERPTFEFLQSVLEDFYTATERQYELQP
Sequence of human LRRK2 kinase (Q5S007 whole entry): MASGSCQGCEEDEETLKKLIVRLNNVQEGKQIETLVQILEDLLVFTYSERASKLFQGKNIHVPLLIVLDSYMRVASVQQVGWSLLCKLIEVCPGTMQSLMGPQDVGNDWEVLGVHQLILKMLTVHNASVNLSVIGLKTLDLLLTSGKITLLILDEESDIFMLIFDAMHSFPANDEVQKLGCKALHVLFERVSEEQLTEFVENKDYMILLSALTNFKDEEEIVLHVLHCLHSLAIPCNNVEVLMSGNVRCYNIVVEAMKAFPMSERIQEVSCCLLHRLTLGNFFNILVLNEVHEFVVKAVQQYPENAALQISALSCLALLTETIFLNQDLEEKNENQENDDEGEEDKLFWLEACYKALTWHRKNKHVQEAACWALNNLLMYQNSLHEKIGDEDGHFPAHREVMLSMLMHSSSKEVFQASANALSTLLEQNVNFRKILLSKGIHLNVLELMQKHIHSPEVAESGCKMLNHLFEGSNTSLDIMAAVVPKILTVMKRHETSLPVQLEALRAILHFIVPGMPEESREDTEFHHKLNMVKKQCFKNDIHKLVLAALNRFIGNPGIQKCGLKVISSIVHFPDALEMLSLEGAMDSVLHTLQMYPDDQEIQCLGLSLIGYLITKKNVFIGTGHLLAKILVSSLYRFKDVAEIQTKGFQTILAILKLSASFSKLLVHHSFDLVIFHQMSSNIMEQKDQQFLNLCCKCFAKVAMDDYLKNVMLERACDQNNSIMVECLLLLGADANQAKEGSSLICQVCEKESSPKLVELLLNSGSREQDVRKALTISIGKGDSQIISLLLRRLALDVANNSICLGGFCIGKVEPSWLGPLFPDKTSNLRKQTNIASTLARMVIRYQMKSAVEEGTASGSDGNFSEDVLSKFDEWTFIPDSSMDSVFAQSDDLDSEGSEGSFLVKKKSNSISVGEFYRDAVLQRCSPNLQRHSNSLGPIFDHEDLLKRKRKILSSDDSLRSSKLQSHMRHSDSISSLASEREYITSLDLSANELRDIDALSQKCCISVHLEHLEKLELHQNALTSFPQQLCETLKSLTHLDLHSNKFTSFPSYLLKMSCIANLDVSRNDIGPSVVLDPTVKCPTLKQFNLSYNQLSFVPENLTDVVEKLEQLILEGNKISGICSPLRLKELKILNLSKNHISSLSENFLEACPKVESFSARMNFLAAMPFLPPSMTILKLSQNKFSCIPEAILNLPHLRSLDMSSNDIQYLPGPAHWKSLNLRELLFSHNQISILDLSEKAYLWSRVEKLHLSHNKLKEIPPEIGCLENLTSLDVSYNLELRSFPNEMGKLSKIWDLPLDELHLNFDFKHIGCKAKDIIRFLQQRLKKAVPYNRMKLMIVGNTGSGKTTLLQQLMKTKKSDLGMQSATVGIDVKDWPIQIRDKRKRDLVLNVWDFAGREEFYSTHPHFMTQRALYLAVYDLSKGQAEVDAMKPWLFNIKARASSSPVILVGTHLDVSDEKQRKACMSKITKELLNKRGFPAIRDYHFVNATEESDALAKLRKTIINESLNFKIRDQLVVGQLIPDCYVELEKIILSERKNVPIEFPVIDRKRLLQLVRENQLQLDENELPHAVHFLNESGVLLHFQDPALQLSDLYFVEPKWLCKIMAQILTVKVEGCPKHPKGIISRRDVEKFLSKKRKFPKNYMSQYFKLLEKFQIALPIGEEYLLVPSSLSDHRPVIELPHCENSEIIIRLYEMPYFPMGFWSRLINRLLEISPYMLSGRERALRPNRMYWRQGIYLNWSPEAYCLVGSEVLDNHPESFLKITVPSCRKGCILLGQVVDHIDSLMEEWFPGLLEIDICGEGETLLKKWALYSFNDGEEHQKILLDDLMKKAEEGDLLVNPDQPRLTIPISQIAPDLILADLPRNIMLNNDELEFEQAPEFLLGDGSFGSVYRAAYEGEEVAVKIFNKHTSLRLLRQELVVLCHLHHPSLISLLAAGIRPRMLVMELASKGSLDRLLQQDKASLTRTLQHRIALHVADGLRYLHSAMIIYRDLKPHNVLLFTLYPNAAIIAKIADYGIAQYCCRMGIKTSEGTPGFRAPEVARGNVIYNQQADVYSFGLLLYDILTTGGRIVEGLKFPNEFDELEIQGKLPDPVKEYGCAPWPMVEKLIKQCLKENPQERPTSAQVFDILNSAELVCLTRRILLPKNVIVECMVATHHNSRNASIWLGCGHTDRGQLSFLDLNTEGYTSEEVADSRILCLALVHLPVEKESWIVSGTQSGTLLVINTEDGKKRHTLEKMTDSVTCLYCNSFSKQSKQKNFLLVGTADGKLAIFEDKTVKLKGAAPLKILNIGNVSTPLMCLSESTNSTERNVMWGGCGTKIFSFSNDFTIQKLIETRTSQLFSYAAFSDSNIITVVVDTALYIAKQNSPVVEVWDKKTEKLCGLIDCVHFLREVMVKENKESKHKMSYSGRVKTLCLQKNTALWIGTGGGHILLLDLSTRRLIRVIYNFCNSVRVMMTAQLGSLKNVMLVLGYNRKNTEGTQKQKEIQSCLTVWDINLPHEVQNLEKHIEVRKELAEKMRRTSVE
T1 sequence (Q86UX6 whole entry): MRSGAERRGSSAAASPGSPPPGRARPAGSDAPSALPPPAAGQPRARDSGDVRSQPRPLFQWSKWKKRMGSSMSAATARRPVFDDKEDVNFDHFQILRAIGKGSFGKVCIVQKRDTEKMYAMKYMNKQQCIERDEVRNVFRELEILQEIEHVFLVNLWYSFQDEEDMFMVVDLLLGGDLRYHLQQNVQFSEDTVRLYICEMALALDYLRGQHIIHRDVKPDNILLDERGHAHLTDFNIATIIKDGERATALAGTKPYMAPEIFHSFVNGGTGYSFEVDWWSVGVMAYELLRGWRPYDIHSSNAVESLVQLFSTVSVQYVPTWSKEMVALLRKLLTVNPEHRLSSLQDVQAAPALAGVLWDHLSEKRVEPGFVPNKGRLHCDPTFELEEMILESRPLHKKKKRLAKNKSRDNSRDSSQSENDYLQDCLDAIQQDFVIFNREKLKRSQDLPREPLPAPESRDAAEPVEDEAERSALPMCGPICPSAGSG
Experimental for human LRRK2 kinase: Assay kits from Promega™ Corporation were used according to instructions and adapted as outlined herein. […] The kinase reaction was performed with kinase reaction buffer (40 mM Tris base pH 7.4, 20 mM MgCl2, 0.5 mM dithiothreitol), 0.1 mg/ml bovine serum albumin, distilled H2O). […] In brief, the kinase reactions were started by addition of ATP to the kinase reaction mixture. The resulting mixture was incubated for 60 minutes at 25° C., and then stopped by adding 5 μl of ADP-Glo™ reagent. After incubation at room temperature in the dark for 40 minutes, 10 μl of kinase detection reagent was added per well, and the mixture was incubated for 10 minutes. […] Positive and negative controls were performed in 0.5% DMSO in the presence and absence of LRRK2 kinases. Curve fitting and data presentations were performed using GraphPad Prism version 5.0 (GraphPad Software, Inc.).

As a reminder, the pIC50 is the negative decadic logarithm of the IC50, by convention in mol/L. Higher therefore signals a small IC50. As to `CNc1nc(Nc2ccc(S(=O)(=O)N3CCC(N4CCOCC4)CC3)cc2OC)nc2[nH]cc(Cl)c12` [Compound 12, 5-chloro-N2-(2-methoxy-4-((4-morpholinopiperidin-1-yl)sulfonyl)phenyl)-N4-methyl-7H-pyrrolo[2,3-d]pyrimidine-2,4-diamine], the pIC50 against human LRRK2 kinase is over 8.00. Besides, the remaining binding at 1 µM on panel of 468 kinases [1] and at panel of 468 kinases [2] was 100% in each case.
`CNc1nc(Nc2ccc(C(=O)N3CCC(N4CCOCC4)CC3)c3c2OCO3)nc2[nH]cc(Cl)c12` [Compound 75, (7-((5-chloro-4-(methylamino)-7H-pyrrolo[2,3-d]pyrimidin-2-yl)amino)benzo[d][1,3]dioxol-4-yl)(4-morpholinopiperidin-1-yl)methanone] gave a pIC50 against human LRRK2 kinase of over 8.00. Also, the remaining binding at 1 µM at panel of 468 kinases [1] and at panel of 468 kinases [2] was 100% each time.
The molecule `CNc1nc(Nc2ccc(P3(=O)CCN(C4CCOCC4)CC3)cc2OC)nc2[nH]cc(Cl)c12` [Compound 77, 4-(4-((5-chloro-4-(methylamino)-7H-pyrrolo[2,3-d]pyrimidin-2-yl)amino)-3-methoxyphenyl)-1-(tetrahydro-2H-pyran-4-yl)-1,4-azaphosphinane 4-oxide] had a pIC50 on human LRRK2 kinase of over 8.00. Also, the remaining binding at 1 µM at panel of 468 kinases [1] and on panel of 468 kinases [2] was 100% each time. Further, at wild-type LRKK2, the “inhibition of the phosphorylation of Ser935 in wild-type LRKK2” value was “inhibited the phosphorylation of Ser935 in wild-type LRKK2 with potency similar to known LRRK2 inhibitor LRRK2-IN-1”.

The values above are taken from patent publication US12479847B2 (DANA-FARBER CANCER INSTITUTE, INC., priority 2019, dated 2025).
